From paper PMC11901818, “Salicylaldehyde Benzoylhydrazones with Anticancer Activity and Selectivity: Design, Synthesis, and In Vitro Evaluation” (Molecules, 2025)
Like-named read-outs stand apart in the source and are kept apart here.

Experiments:
[1] = tested on: HL-60 cells (acute promyelocytic leukemia); assay: Mosmann MTT cell viability test, HL-60; type: cell-based, human; settings: for IC50: Homo sapiens, HL-60, MTT, 72 h exposure, ± standard deviation; for Selectivity index (SI): IC50 HEK-293 / IC50 HL-60
Experimental: (§1) The anticancer activity of the dimethoxy hydrazone derivatives was tested against a panel of malignant human cell lines of different tissue origin and molecular characteristics, including several in vitro leukemia models (acute promyelocytic leukemia HL-60; bcr-abl+ chronic myeloid leukemia cell lines BV-173, K-562, and AR-230; and T-cell leukemia SKW-3), as well as the two major phenotypes of human breast adenocarcinoma (hormone-sensitive MCF-7 cells with high progesterone (PR) and estrogen receptor α (ERα) expression and triple-negative breast adenocarcinoma (TNBC) MDA-MB-231 lacking ERα, PR, and human epidermal growth factor receptor 2 (HER2)). The existence and degree of cancer selectivity of the tested compounds were evaluated against normal human embryonic kidney HEK-293 cells.
(§2) The spectrum of anti-tumor activity of the experimental compounds was assessed against human malignant cell lines of leukemic (HL-60, BV-173, K-562, AR-230, and SKW-3) and epithelial (MCF-7 and MDA-MB-231) origin, as well as normal human embryonic kidney cells (HEK-293). All cell lines were purchased from the German Collection of Microorganisms and Cell Cultures (DSMZ GmbH, Braunschweig, Germany), and cell cultures were maintained and grown in the appropriate medium specified by the provider and incubated under standard conditions of 37 °C and 5% humidified CO2 atmosphere.
(§3) The cytotoxicity assessment of the methoxysalicylaldehyde methoxybenzoylhydrazone series was performed using the Mosmann MTT method, a validated technique for evaluating cell viability. Cells in the exponential growth phase were harvested and seeded (100 µL/well) in 96-well plates at a suitable density (3 × 10^5 cells/well for suspension leukemic cultures and 1.5 × 10^5 cells/well for adherent epithelial cells). After a 24 h incubation period, the cells were treated with serial dilutions of the tested compounds within an appropriate concentration range. Following a 72 h exposure, an MTT substrate solution (5 mg/mL in PBS) was added to each well. After an additional 4 h incubation, purple insoluble formazan crystals formed. These crystals were then dissolved in an isopropyl alcohol solution containing 5% formic acid before measuring absorbance at 550 nm using a microplate reader Labexim LMR-1 (Vienna, Austria). The recorded absorbance values were blanked against MTT and isopropanol solution and normalized to the mean value of the untreated control (representing 100% cell viability). The experimental data were analyzed using non-linear regression analysis in GraphPad Prism® software 8.0 (San Diego, CA, USA), from which semi-logarithmic “dose–response” curves were constructed, and the half-inhibitory concentrations (IC50) of the tested compounds were calculated.

[2] = tested on: BV-173 cells (bcr-abl+ chronic myeloid leukemia); assay: Mosmann MTT cell viability test, BV-173; type: cell-based, human; settings: for IC50: Homo sapiens, BV-173, MTT, 72 h exposure, ± standard deviation; for Selectivity index (SI): IC50 HEK-293 / IC50 BV-173
Experimental: as §1, §2, §3

[3] = tested on: K-562 cells (bcr-abl+ chronic myeloid leukemia); assay: Mosmann MTT cell viability test, K-562; type: cell-based, human; settings: for IC50: Homo sapiens, K562, K-562, MTT, 72 h exposure, ± standard deviation; for Selectivity index (SI): IC50 HEK-293 / IC50 K-562
Experimental: as §1, §2, §3

[4] = tested on: AR-230 cells (bcr-abl+ chronic myeloid leukemia); assay: Mosmann MTT cell viability test, AR-230; type: cell-based, human; settings: for IC50: AR-230, MTT, 72 h exposure, ± standard deviation; for Selectivity index (SI): IC50 HEK-293 / IC50 AR-230
Experimental: as §1, §2, §3

[5] = tested on: SKW-3 cells (T-cell leukemia); assay: Mosmann MTT cell viability test, SKW-3; type: cell-based, human; settings: for IC50: SKW-3, MTT, 72 h exposure, ± standard deviation; for Selectivity index (SI): IC50 HEK-293 / IC50 SKW-3
Experimental: as §1, §2, §3

[6] = tested on: MCF-7 cells (breast ER+ adenocarcinoma); assay: Mosmann MTT cell viability test, MCF-7; type: cell-based, human; settings: for IC50: Homo sapiens, MCF7, MCF-7, MTT, 72 h exposure, ± standard deviation; for Selectivity index (SI): IC50 HEK-293 / IC50 MCF-7
Experimental: as §1, §2, §3

MDA-MB-231 cells (TNBC) = assay: Mosmann MTT cell viability test, MDA-MB-231; type: cell-based, human; settings: for IC50: Homo sapiens, MDA-MB-231, MTT, 72 h exposure, ± standard deviation; for Selectivity index (SI): IC50 HEK-293 / IC50 MDA-MB-231
Experimental: as §1, §2, §3

[7] = tested on: normal human embryonic kidney cells, HEK-293; assay: Mosmann MTT cell viability test, HEK-293 (selectivity); type: cell-based; settings: HEK293, HEK-293 normal cells, 72 h exposure, ± standard deviation
Experimental: as §1, §2, §3

[8] = tested on: leukemia cell lines (BV-173, K-562, SKW-3, AR-230, and HL-60); assay: MTT test, average over leukemia cell lines; type: cell-based, human; settings: Avg. leukemia
Experimental: (§4) The ligand efficiencies (LEs), obtained by the ratio between pIC50 and the number of heavy atoms in the molecule, along with the selectivity indices (SIs), calculated by comparing IC50 of normal cells to IC50 of cancer cells, are presented in Table 4.
as §2, §3

[9] = tested on: breast cancer cell lines (MCF-7, MDA-MB-231); assay: MTT test, average over breast cancer cell lines; type: cell-based, human; settings: Avg. breast cancer
Experimental: as §4, §2
The cytotoxicity assessment of the methoxysalicylaldehyde methoxybenzoylhydrazone series was performed using the Mosmann MTT method, a validated technique for evaluating cell viability. Cells in the exponential growth phase were harvested and seeded (100 µL/well) in 96-well plates at a suitable density (3 × 10^5 cells/well for suspension leukemic cultures and 1.5 × 10^5 cells/well for adherent epithelial cells). After a 24 h incubation period, the cells were treated with serial dilutions of the tested compounds within an appropriate concentration range. […] These crystals were then dissolved in an isopropyl alcohol solution containing 5% formic acid before measuring absorbance at 550 nm using a microplate reader Labexim LMR-1 (Vienna, Austria). The recorded absorbance values were blanked against MTT and isopropanol solution and normalized to the mean value of the untreated control (representing 100% cell viability). The experimental data were analyzed using non-linear regression analysis in GraphPad Prism® software 8.0 (San Diego, CA, USA), from which semi-logarithmic “dose–response” curves were constructed, and the half-inhibitory concentrations (IC50) of the tested compounds were calculated.

[10] = tested on: all cancer cell lines (five leukemia, MCF-7, MDA-MB-231); assay: MTT test, average over all cancer cell lines; type: cell-based, human; settings: Avg. all cancers
Experimental: as §4, §2, §3

| SMILES | IC50 [1] [µM] | IC50 [2] [µM] | IC50 [3] [µM] | IC50 [4] | IC50 ([4]; Homo sapiens, read-out: IC50) [µM] | IC50 ([5]; Homo sapiens, SKW3, 72 h) [µM] | IC50 [6] [µM] | IC50 (MDA-MB-231 cells (TNBC)) [µM] | IC50 [5] [µM] | Selectivity index (SI) [1] | Selectivity index (SI) [2] | Selectivity index (SI) [3] | Selectivity index (SI) [4] | Selectivity index (SI) [5] | Selectivity index (SI) [6] | Selectivity index (SI) (MDA-MB-231 cells (TNBC)) | IC50 [7] [µM] | Selectivity index (SI) [8] | Selectivity index (SI) [9] | Selectivity index (SI) [10] |
| --- | --- | --- | --- | --- | --- | --- | --- | --- | --- | --- | --- | --- | --- | --- | --- | --- | --- | --- | --- | --- |
| COc1ccc(C(=O)NN=Cc2ccc(OC)cc2O)cc1 [Compound 5, N′-(2-hydroxy-4-methoxybenzylidene)-4-methoxybenzohydrazide] | 4.7 ± 0.5 | 1.4 ± 0.2 | 1.5 ± 0.1 | – | 1.1 ± 0.2 | < 1 | 21.3 ± 1.9 | 60.1 ± 5 | 0.5 ± 0.1 | 2 | 7 | 7 | 9 | 21 | – | – | 10.4 ± 1.1 | 9 | – | 7 |
| COc1ccccc1C(=O)NN=Cc1cccc(OC)c1O [Compound 1, N′-(2-hydroxy-3-methoxybenzylidene)-2-methoxybenzohydrazide] | 11.2 ± 2.1 | 33.5 ± 3.4 | 20.4 ± 2.9 | – | 50.5 ± 6.6 | 4.3 ± 0.5 | 30.1 ± 3.2 | 22 ± 2.8 | – | >9 | >3 | >5 | >2 | >23 | >3 | >5 | > 100 | >8 | >4 | >7 |
| COc1cccc(C(=O)NN=Cc2cccc(OC)c2O)c1 [Compound 2, N′-(2-hydroxy-3-methoxybenzylidene)-3-methoxybenzohydrazide] | 3.6 ± 0.3 | 2.7 ± 0.2 | 2.1 ± 0.1 | – | 5.9 ± 0.7 | 1.4 ± 0.1 | 25.6 ± 2.8 | 26.9 ± 3.3 | – | 5 | 6 | 8 | 3 | 12 | 1 | 1 | 16.8 ± 2.3 | 7 | 1 | 5 |

The next molecules have a lower IC50 [1] than those just listed; values first:

| IC50 [1] [µM] | IC50 [2] [µM] | IC50 [3] [µM] | IC50 [4] | IC50 ([4]; Homo sapiens, read-out: IC50) [µM] | IC50 ([5]; Homo sapiens, SKW3, 72 h) [µM] | IC50 [6] [µM] | IC50 (MDA-MB-231 cells (TNBC)) [µM] | IC50 [5] [µM] | SMILES | Selectivity index (SI) [1] | Selectivity index (SI) [2] | Selectivity index (SI) [3] | Selectivity index (SI) [4] | Selectivity index (SI) [5] | Selectivity index (SI) [6] | Selectivity index (SI) (MDA-MB-231 cells (TNBC)) | IC50 [7] [µM] | Selectivity index (SI) [8] | Selectivity index (SI) [9] | Selectivity index (SI) [10] |
| --- | --- | --- | --- | --- | --- | --- | --- | --- | --- | --- | --- | --- | --- | --- | --- | --- | --- | --- | --- | --- |
| 2.4 ± 0.1 | 2.7 ± 0.2 | 2.8 ± 0.4 | not active | > 100 | 2.7 ± 0.3 | 36.1 ± 4.4 | 23.5 ± 3.4 | – | COc1ccc(C(=O)NN=Cc2cccc(OC)c2O)cc1 [Compound 3, N′-(2-hydroxy-3-methoxybenzylidene)-4-methoxybenzohydrazide] | >42 | >19 | >36 | >1 | >37 | >3 | >4 | > 100 | >27 | >4 | >20 |
| 2.1 ± 0.2 | 2.2 ± 0.3 | 1.6 ± 0.2 | – | 4.5 ± 0.4 | < 1 | 23.3 ± 2.7 | 19.8 ± 3.1 | 0.8 ± 0.1 | COc1cccc(C(=O)NN=Cc2ccc(OC)cc2O)c1 [Compound 4, N′-(2-hydroxy-4-methoxybenzylidene)-3-methoxybenzohydrazide] | 4 | 4 | 5 | 2 | 11 | – | – | 8.6 ± 1.5 | 5 | – | 4 |
